{"source": "paper PMC9462851", "about": "“Redox-controlled reorganization and flavin strain within the ribonucleotide reductase R2b–NrdI complex monitored by serial femtosecond crystallography” (eLife, 2022)", "key": {"[1]": {"molecular_target": "T1, BcR2b–NrdI complex (BcR2bMnMn–NrdI) (Bacillus cereus, UniProt Q81G55+Q81G57)", "T1 construct": "Untagged purification from E. coli BL21(DE3), plasmids pET22b-BcnrdI and pET22b-Bcr2b; NrdI 118 residues, 13,449 Da; R2b 322 residues, 37,017 Da, produced metal-free then Mn(II)-loaded; 1:1 complex, dimer of heterodimers", "T1 sequence (Q81G57 1-119)": "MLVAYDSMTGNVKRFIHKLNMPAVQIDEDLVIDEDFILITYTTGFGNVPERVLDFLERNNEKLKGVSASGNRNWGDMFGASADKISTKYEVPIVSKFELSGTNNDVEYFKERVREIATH", "T1 sequence (Q81G55 1-322)": "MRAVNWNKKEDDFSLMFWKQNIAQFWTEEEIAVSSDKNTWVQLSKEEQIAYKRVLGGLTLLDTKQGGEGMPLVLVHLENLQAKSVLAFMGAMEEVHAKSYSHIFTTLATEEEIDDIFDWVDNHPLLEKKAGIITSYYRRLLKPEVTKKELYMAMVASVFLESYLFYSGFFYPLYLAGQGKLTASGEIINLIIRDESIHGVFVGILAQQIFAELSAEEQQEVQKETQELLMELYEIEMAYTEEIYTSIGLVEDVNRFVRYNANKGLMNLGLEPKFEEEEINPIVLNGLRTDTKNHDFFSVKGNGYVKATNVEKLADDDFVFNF", "test": "serial femtosecond crystallography (XFEL), […] Å", "type": "binding", "conditions": "Mn(II)/Mn(II) R2b, room temperature"}, "[2]": {"molecular_target": "Bacillus cereus ribonucleotide reductase class Ib R2 subunit (R2b), di-manganese form (Bacillus cereus)", "test": "crystal structure; serial femtosecond crystallography at an XFEL (LCLS MFX), room temperature, 2.0 Å; complex reconstituted in vitro by mixing 0.25 mM BcR2b (with 12 equivalents Mn(II)Cl2) and 0.25 mM BcNrdI in 50 mM Tris-HCl pH 7.5, 20°C; batch crystals with NrdI oxidized (7Z3D) or reduced in the crystal with dithionite to the hydroquinone (7Z3E)"}}, "data": [{"molecule": "Cc1cc2c(cc1C)N(C[C@H](O)[C@H](O)[C@H](O)COP(=O)(O)O)c1[nH]c(=O)[nH]c(=O)c1N2", "note": "[FMNhq, hydroquinone flavin mononucleotide]", "values": [{"measurement": "serial femtosecond crystallography (XFEL), 2.0 Å", "setting": "[1]; anaerobic, crystals reduced with sodium dithionite, noncovalent FMN in NrdI at the R2b interface", "result": "The corresponding structure is denoted BcR2bMnMn–NrdIhq (PDB ID: 7Z3E)"}]}, {"molecule": "Cc1cc2nc3c(=O)[nH]c(=O)nc-3n(C[C@H](O)[C@H](O)[C@H](O)COP(=O)(O)O)c2cc1C", "note": "[FMNox, flavin mononucleotide]", "values": [{"measurement": "serial femtosecond crystallography (XFEL), 2.0 Å", "setting": "[1]; oxidized crystals grown aerobically, noncovalent FMN in NrdI at the R2b interface (R2b Phe17, Gln20)", "result": "The structure from these crystals is later referred to as BcR2bMnMn–NrdIox (PDB ID: 7Z3D)"}]}, {"molecule": "Bacillus cereus NrdI (flavoprotein with bound flavin mononucleotide) (natural protein) MLVAYDSMTGNVKRFIHKLNMPAVQIDEDLVIDEDFILITYTTGFGNVPERVLDFLERNNEKLKGVSASGNRNWGDMFGASADKISTKYEVPIVSKFELSGTNNDVEYFKERVREIAT", "values": [{"measurement": "stoichiometry N", "setting": "[2]", "result": 1}]}]}
